In paper PMC9539280 (Advanced Science, 2022):
Where a name gives a salt, the structure may show the parent alone. Read-outs that look alike come from different tables or passages of the source.

Columns and labels:
[1] = cited from earlier work
[2] = system: remdesivir-treated hCMs; assay: High-throughput screening and validation of compounds protective against remdesivir (cell viability); format: cell-based, human; conditions: for remdesivir-induced cardiotoxicity (cell viability), protection: 10 × 10^−6 or 25 × 10^−6 M remdesivir for 6 days with co-administration
Experimental: (§1) hCMs were dissociated with 0.25% trypsin/EDTA (25200072, Gibco) and then seeded into 384‐well plates at the density of 8 × 10^3 cells per well. 24 h after seeding, cells were exposed to the drugs at the indicated concentrations for 6 days. Culture media were fully changed every 3 days with new drug supplementation. After drug treatment, cells were stained with calcein‐AM/PI/Hoechst for 20 min using calcein‐AM/PI double staining kit (C542, DOJINDO). Images were captured by the Operetta CLS High‐Content Analysis System (PerkinElmer). Number of live cells (calcein‐AM+/PI‐) and dead cells (PI+) was quantified by using the Harmony 4.9 software (PerkinElmer). Number of live cells was used to calculate the “relative cell viability” as follows (1) relarivecellviability=numberoflivecellsineachtreatment/numberoflivecellsinDMSOcontrol×100%
hCMs were seeded into 384‐well plates at a density of 8 × 10^3 cells per well. 24 h after seeding, the cells were treated with either 25 × 10^−6 M remdesivir alone or remdesivir with the chemicals from a Bioactive Compound Library (Topscience) consisted of 2464 natural compounds and US FDA‐approved drugs for 6 days. Chemicals at the concentration of 5 × 10^−6 M were transferred to the plates by using a Tecan Freedom EVO 150 liquid handler.

[3] = system: hCMs (human pluripotent stem cell-derived cardiomyocytes); assay: Cytotoxicity assay, calcein-AM/PI double staining, relative cell viability; format: cell-based; conditions: for effects on normal hCMs (viability, apoptosis, sarcomere organization): absence of remdesivir, 3 μM and 10 μM; for cell viability of hCMs: 6 days, escalating concentrations (0.03-3 or 1-30 × 10^−6 M), calcein-AM/PI
Experimental: as §1

[4] = system: hCMs; assay: Spontaneous calcium transient measurement (Fluo-4) in hCMs; conditions: 6 days; for calcium transient amplitude: escalating concentrations (1-20 μM)
[5] = system: hCMs; assay: Calcium measurement in hCMs under electrical field stimulation
[6] = system: hEHTs (human engineered heart tissues); assay: TUNEL/α-actinin staining of hEHTs; conditions: for toxicity to hEHTs: 2 × 10^−6 and 5 × 10^−6 M for 3 days
[7] = system: hCMs; assay: TUNEL apoptosis assay in hCMs; conditions: 6 days
[8] = system: hCMs; assay: Sarcomere organization by α-actinin immunostaining in hCMs; conditions: 6 days
[9] = system: mitochondrial permeability transition pore; conditions: not told; cited from earlier work
[10] = system: hEHTs (human engineered heart tissues); assay: Contractile force / spontaneous contractility of hEHTs
[11] = system: hCMs; assay: Mitochondrial (MitoSox) and intracellular (DCFH-DA) ROS measurement in hCMs; format: cell-based, human; conditions: remdesivir 10 μM, 4 or 6 days; for could alter the level of ROS in hCMs when co-stimulated with remdesivir: Asta 10 μM, Vc 50 μg/ml, Vb1 10 μg/ml, NAC 1 mM, GSH 25 μg/ml
Experimental: Mitochondrial‐associated ROS and intracellular ROS were measured using MitoSox Red Mitochondrial Superoxide Indicator (M‐36008, ThermoFisher) and DCFH‐DA (S0033S, Beyotime), respectively. For mitochondrial‐associated ROS measurement, hCMs were loaded with 4 × 10^−6 M MitoSox dye in Hanks' balanced salt solution buffer for 15 min at 37 °C and washed twice with PBS. The MitoSox fluorescence (excitation/emission = 510/580 nm) was detected and quantified by the Operetta CLS High‐Content Analysis System. For intracellular ROS measurement, hCMs were loaded with 10 × 10^−6 M DCFH‐DA in serum‐free medium for 20 min at 37 °C and washed twice with serum‐free medium. The DCFH fluorescence (excitation/emission = 488/525 nm) was detected and quantified by the Operetta CLS High‐Content Analysis System.

[12] = cited from earlier work; for Cardiotoxic effects: reported clinical cardiotoxic effects of the repurposed drug, 10a,b, 10c, 41, 42
[13] = system: hCMs; design: method as in PMID 34142159; conditions: ref 25a; cited from earlier work
[14] = read-out: C max, maximum plasma concentration, ref U.S. FDA or published literature
[15] = spontaneous, escalating concentrations (lopinavir: high dosage only)
[16] = 2 × 10^−6 M remdesivir and 2 × 10^−6 M astaxanthin for 2 days

Molecule: CCN(CC)CCCC(C)Nc1ccnc2cc(Cl)ccc12 (stereo not shown) [Chloroquine, chloroquine]
- Cmax [1, 14]: 1.17 µM

Molecule: N#CC[C@H](C1CCCC1)n1cc(-c2ncnc3[nH]ccc23)cn1 [Ruxolitinib, ruxolitinib]
- Cmax ([1]; in vivo): 7.1 µM

Molecule: OCCOCCN1CCN(C2=Nc3ccccc3Sc3ccccc32)CC1 [quetiapine fumarate]
- remdesivir-induced cardiotoxicity (cell viability), protection [2]: confirmed to reduce
- effects on normal hCMs (viability, apoptosis, sarcomere organization) [3]: little effects

Molecule: Cc1cccc(C)c1OCC(=O)N[C@@H](Cc1ccccc1)[C@@H](O)C[C@H](Cc1ccccc1)NC(=O)[C@H](C(C)C)N1CCCNC1=O [Lopinavir, lopinavir]
- calcium transient amplitude ([4]; spontaneous): tended to decrease
- time to 50% decay of the calcium transients [4, 15]: significantly increased
- time to peak of the calcium transients [4, 15]: significantly increased
- cell viability of hCMs [3]: dose‐dependent decrease
- intracellular calcium handling properties of hCMs [5]: impair
- Cmax ([1]; in vivo): 42.1 µM
- toxicity to hEHTs [6]: toxic to hEHTs
- apoptosis of hCMs (TUNEL) [7]: increased apoptosis
- sarcomere organization of hCMs [8]: sarcomeric disarray

Molecule: CC1=C(/C=C/C(C)=C/C=C/C(C)=C/C=C/C=C(C)/C=C/C=C(C)/C=C/C2=C(C)C(=O)[C@@H](O)CC2(C)C)C(C)(C)C[C@H](O)C1=O [astaxanthin]
- opening of mitochondrial permeability transition pore [9]: inhibit the opening
- remdesivir-induced alterations in calcium transient duration ([4]; 10 × 10^−6 M remdesivir plus 10 × 10^−6 M astaxanthin): reversed
- protective effect against remdesivir compared with the other hits [2]: most prominent protective effect
- remdesivir-induced cardiotoxicity (cell viability), protection [2]: confirmed to reduce
- effects on normal hCMs (viability, apoptosis, sarcomere organization) [3]: little effects
- decrease in contractile force induced by remdesivir in hEHTs [10, 16]: significantly resolved
- proportion of abnormal beating induced by remdesivir in hEHTs [10, 16]: significantly resolved
- frequency of abnormal beating caused by remdesivir ([5]; 10 × 10^−6 M remdesivir plus 10 × 10^−6 M astaxanthin, 6 days): relieved dramatically
- cell apoptosis in hEHTs exposed to remdesivir [6, 16]: remarkably decreased
- could alter the level of ROS in hCMs when co-stimulated with remdesivir [11]: neither

Molecule: CCN(CCO)CCCC(C)Nc1ccnc2cc(Cl)ccc12 (stereo not shown) [Hydroxychloroquine, hydroxychloroquine]
- Cardiotoxic effects [12]: QTc prolongation^[ [41] ^]
- Cmax ([1]; in vivo): 1.35 µM

Molecule: C[C@H]1C[C@@H]2[C@H]([C@@H](O)C[C@@]3(C)[C@H]2CC[C@]3(O)C(=O)CO)[C@@]2(C)C=CC(=O)C=C12 [Methylprednisolone, methylprednisolone]
- Cmax ([1]; in vivo): 1.26 µM

Molecule: CC(C)c1nc(CN(C)C(=O)N[C@H](C(=O)N[C@@H](Cc2ccccc2)C[C@H](O)[C@H](Cc2ccccc2)NC(=O)OCc2cncs2)C(C)C)cs1 [Ritonavir, ritonavir]
- calcium transient amplitude ([4]; spontaneous): tended to decrease
- Cardiotoxic effects [12]: QTc prolongation and arrhythmias^[ [9] ^]
- intracellular calcium handling properties of hCMs [5]: impair
- Cmax ([1]; in vivo): 1.32 µM
- toxicity to hEHTs [6]: toxic to hEHTs
- apoptosis of hCMs (TUNEL) [7]: increased apoptosis
- sarcomere organization of hCMs [8]: sarcomeric disarray

Molecule: CCS(=O)(=O)N1CC(CC#N)(n2cc(-c3ncnc4[nH]ccc34)cn2)C1 [Baricitinib, baricitinib]
- Cmax [1, 14]: 3.69 µM

Molecule: N[C@@H](CCC(=O)N[C@@H](CS)C(=O)NCC(=O)O)C(=O)O [reduced L‐Glutathione]
- could alter the level of ROS in hCMs when co-stimulated with remdesivir [11]: neither

Molecule: CCOC(=O)C1=C[C@@H](OC(CC)CC)[C@H](NC(C)=O)[C@@H](N)C1 [oseltamivir]
- associated adverse cardiac effect [12]: tachycardia

Molecule: ivermectin
- associated adverse cardiac effect [12]: tachycardia
- Cmax [1, 14]: 0.049 µM

Molecule: CC[C@H]1OC(=O)[C@H](C)[C@@H](O[C@H]2C[C@@](C)(OC)[C@@H](O)[C@H](C)O2)[C@H](C)[C@@H](O[C@@H]2O[C@H](C)C[C@H](N(C)C)[C@H]2O)[C@](C)(O)C[C@@H](C)CN(C)[C@H](C)[C@@H](O)[C@]1(C)O [Azithromycin, azithromycin]
- Cardiotoxic effects [12]: Ventricular arrhythmias^[ [42] ^]
- Cmax [1, 14]: 0.67 µM

Molecule: C[C@H]1[C@H](OC(=O)CCC(=O)O)O[C@@H]2O[C@@]3(C)CC[C@H]4[C@H](C)CC[C@@H]1[C@@]24OO3 [Artesunate, artesunate]
- Cmax ([1]; in vivo): 0.17 µM

Molecule: COCCCC/C(=N\OCCN)c1ccc(C(F)(F)F)cc1 [Fluvoxamine, fluvoxamine]
- Cmax [1, 14]: 0.73 µM

Molecule: O=C1O[C@H]([C@@H](O)CO)C(O)=C1O [vitamin C]
- could alter the level of ROS in hCMs when co-stimulated with remdesivir [11]: neither

Molecule: CCC(CC)COC(=O)[C@H](C)N[P@](=O)(OC[C@H]1O[C@@](C#N)(c2ccc3c(N)ncnn23)[C@H](O)[C@@H]1O)Oc1ccccc1 [Remdesivir, remdesivir]
- Cardiotoxic effects [12]: Cardiac arrest,^[ [10a,b] ^] heart failures,^[ [10c] ^] arrhythmias^[ [10c] ^]
- cell viability of hCMs [3]: dose‐dependent decrease
- hEHT function (tissue level cardiotoxicity) [10]: weaken hEHT function
- abnormal beating of hEHTs (spontaneous contractility) ([10]; 2 × 10^−6 or 5 × 10^−6 M for 3 days): more severe
- passive force of hEHTs ([10]; 3 days): increases of the passive force
- contractile force of hEHTs ([10]; progressive stretch 0-12%, 3 days): much lower
- intracellular calcium handling properties of hCMs [5]: impair
- Cmax [1, 14]: 9.03 µM
- toxicity to hEHTs [6]: toxic to hEHTs
- ROS level in hCMs ([11]; MitoSox and DCFH-DA): did not alter
- apoptosis of hCMs (TUNEL) [7]: increased apoptosis
- ROS levels in hCMs [13]: does not alter
- mitochondrial fragmentation [13]: induce mitochondrial fragmentation
- mitochondrial respiration [13]: suppress mitochondrial respiration
- sarcomere organization of hCMs [8]: sarcomeric disarray

Molecule: NC(=O)c1nc(F)c[nH]c1=O [Favipiravir, favipiravir]
- Cmax ([1]; in vivo): 115 µM

Molecule: CON=C(C(=O)NC1C(=O)N2C(C(=O)O)=C(CSC(=O)c3ccco3)CSC12)c1csc(N)n1 (stereo not shown) [ceftiofur hydrochloride]
- remdesivir-induced cardiotoxicity (cell viability), protection [2]: confirmed to reduce
- effects on normal hCMs (viability, apoptosis, sarcomere organization) [3]: little effects

Molecule: CC(C)C(=O)OC[C@H]1O[C@@H](n2ccc(NO)nc2=O)[C@H](O)[C@@H]1O [Molnupiravir, molnupiravir]
- Cmax ([1]; in vivo): 10 to 15 µM

Molecule: CC(=O)N[C@@H](CS)C(=O)O [N‐acetylcysteine]
- could alter the level of ROS in hCMs when co-stimulated with remdesivir [11]: neither

Molecule: Cc1c(-c2ccc(-c3ccccc3F)cc2)nc2ccc(F)cc2c1C(=O)O [Brequinar, brequinar]
- Cmax ([1]; in vivo): 16 µM

Molecule: CC(C)CN(C[C@@H](O)[C@H](Cc1ccccc1)NC(=O)O[C@H]1CO[C@H]2OCC[C@H]21)S(=O)(=O)c1ccc(N)cc1 [Darunavir, darunavir]
- Cmax [1, 14]: 12.7 µM

Molecule: CC1(C)C(=O)N(c2ccc(C#N)c(C(F)(F)F)c2F)C(=S)N1c1ccc(CCCc2ncco2)nc1 [Proxalutamide, proxalutamide]
- Cmax [1, 14]: 29 µM

Molecule: CC(=O)Oc1ccccc1C(=O)Nc1ncc([N+](=O)[O-])s1 [Nitazoxanide, nitazoxanide]
- Cmax ([1]; in vivo): 17.5 µM

Molecule: Cc1ncc(C[n+]2csc(CCO)c2C)c(N)n1 [vitamin B1]
- could alter the level of ROS in hCMs when co-stimulated with remdesivir [11]: neither

Molecule: CC(C)(C)[C@H](NC(=O)C(F)(F)F)C(=O)N1C[C@H]2[C@@H]([C@H]1C(=O)N[C@H](C#N)C[C@@H]1CCNC1=O)C2(C)C [Nirmatrelvir, nirmatrelvir]
- Cmax ([1]; in vivo): 6.66 µM

Molecule: C[C@@H]1CCN(C(=O)CC#N)C[C@@H]1N(C)c1ncnc2[nH]ccc12 [Tofacitinib, tofacitinib]
- Cmax [1, 14]: 0.135 µM
